Source: paper PMC9098913, “In vitro reconstitution of Escherichia coli divisome activation” (Nature Communications, 2022)

Test: Single-molecule membrane residence time of FtsA
Format: binding
Set-up: Single Molecule Lifetime: unit not given here
Settings: for Single Molecule Lifetime, mean: mean of Exp. 1-3, n = 3, Fig. 3b; for mean residence time on the membrane: single-particle tracking, n = 3
Description: First, we studied the behaviour of single FtsA proteins on the membrane surface.
After 5 min of incubation, single molecule time lapses were acquired every 125, 250, 500, and 1000 and 2000 ms, with an exposure time of 50 ms. Subsequently, the bulk concentration of FtsA was increased to 0.2/0.4/0.8 µM and time lapses were repeated as described above.
Single molecules of FtsA or FtsZ were tracked using the TrackMate plugin from ImageJ[43]. To obtain the residence time of FtsZ and FtsA, we performed a residence time analysis as described before[40],[47]. Shortly, single molecules were imaged at different acquisition rates (0.1–2 s) and the lifetime of the molecules was extracted from each data set. To account for photobleaching effect, the obtained lifetimes were plotted against the acquisition rate. […] Furthermore, we extracted the diffusion coefficient of FtsA single molecules at increasing concentrations. For this, we filtered the obtained data, by considering only trajectories which are present on the membrane for more than 0.4 s. […] Subsequently, the diffusion coefficient of FtsA molecules was estimated by fitting an MSD curve to each individual trajectory.

FtsA WT: wild-type E. coli actin-homologue FtsA, membrane anchor of FtsZ
Single Molecule Lifetime (0.1 µM FtsA, Exp. 1): 15.60
Single Molecule Lifetime (0.1µM FtsA, Exp. 2): 17.80
Single Molecule Lifetime (0.1 µM FtsA, Exp. 3): 24.80
Single Molecule Lifetime, mean (0.1 µM FtsA): 19.40
mean residence time on the membrane (0.1 µM FtsA): 19.4 ± 3.9 s
Single Molecule Lifetime (0.2 µM FtsA, Exp. 1): 13.20
Single Molecule Lifetime (0.2µM FtsA, Exp. 2): 21.50
Single Molecule Lifetime (0.2 µM FtsA, Exp. 3): 28.80
Single Molecule Lifetime, mean (0.2 µM FtsA): 21.17
Single Molecule Lifetime (0.4 µM FtsA, Exp. 1): 28.70
Single Molecule Lifetime (0.4µM FtsA, Exp. 2): 24.00
Single Molecule Lifetime (0.4 µM FtsA, Exp. 3): 26.30
Single Molecule Lifetime, mean (0.4 µM FtsA): 26.33
Single Molecule Lifetime (0.8 µM FtsA, Exp. 1): 37.60
Single Molecule Lifetime (0.8µM FtsA, Exp. 2): 32.60
Single Molecule Lifetime (0.8 µM FtsA, Exp. 3): 35.20
Single Molecule Lifetime, mean (0.8 µM FtsA): 35.13
mean residence time on the membrane (0.8 µM FtsA): 35.1 ± 2.0 s

B1: FtsA R286W (protein)
chain: MIKATDRKLVVGLEIGTAKVAALVGEVLPDGMVNIIGVGSCPSRGMDKGGVNDLESVVKCVQRAIDQAELMADCQISSVYLALSGKHISCQNEIGMVPISEEEVTQEDVENVVHTAKSVRVRDEHRVLHVIPQEYAIDYQEGIKNPVGLSGVRMQAKVHLITCHNDMAKNIVKAVERCGLKVDQLIFAGLASSYSVLTEDERELGVCVVDIGGGTMDIAVYTGGALRHTKVIPYAGNVVTSDIAYAFGTPPSDAEAIKVRHGCALGSIVGKDESVEVPSVGGRPPWSLQRQTLAEVIEPRYTELLNLVNEEILQLQEKLRQQGVKHHLAAGIVLTGGAAQIEGLAACAQRVFHTQVRIGAPLNITGLTDYAQEPYYSTAVGLLHYGKESHLNGEAEVEKRVTASVGSWIKRLNSWLRKEF
modifications: Cy3 or Cy5 at the N-terminus in the labelled form (labelled CLEPTGG peptide conjugated to the 5xGly tag by sortagging); unlabelled protein also used; left off: TwinStrep-SUMO, N-terminal, cleaved | 5x
Single Molecule Lifetime (0.1 µM FtsA, Exp. 1): 1.99
Single Molecule Lifetime (0.1µM FtsA, Exp. 2): 2.89
Single Molecule Lifetime (0.1 µM FtsA, Exp. 3): 3.02
Single Molecule Lifetime, mean (0.1 µM FtsA): 2.63
Single Molecule Lifetime (0.2 µM FtsA, Exp. 1): 3.32
Single Molecule Lifetime (0.2µM FtsA, Exp. 2): 7.68
Single Molecule Lifetime (0.2 µM FtsA, Exp. 3): 10.90
Single Molecule Lifetime, mean (0.2 µM FtsA): 7.30
Single Molecule Lifetime (0.4 µM FtsA, Exp. 1): 8.16
Single Molecule Lifetime (0.4µM FtsA, Exp. 2): 11.60
Single Molecule Lifetime (0.4 µM FtsA, Exp. 3): 5.33
Single Molecule Lifetime, mean (0.4 µM FtsA): 8.36
Single Molecule Lifetime (0.8 µM FtsA, Exp. 1): 15.60
Single Molecule Lifetime (0.8µM FtsA, Exp. 2): 10.90
Single Molecule Lifetime (0.8 µM FtsA, Exp. 3): 15.80
Single Molecule Lifetime, mean (0.8 µM FtsA): 14.10
